Data taken from US9364450B2, “Clenbuterol for use in treatment of autism” (STOW[…]. CELESTYNA, priority 2011, dated 2016).

Experiment: Administration of clenbuterol to patients with autistic symptoms (case examples)
Type: in vivo, autistic children
Experimental: A patient with autistic symptoms in the form of disorders of social integration, verbal and non-verbal communication, play disorders and concomitant anxiety, especially when changing environment, was administered clenbuterol at a dose of ¼ tablet containing 20 μg of clenbuterol once daily for a period of 3 months.
A patient with pediatric autism and cerebral palsy was administered the medication at a dose of ¼ of 20 μg tablet twice daily for a period of 12 months.
A patient with early pediatric autism, psychomotor hyperactivity syndrome and speech development delay was administered clenbuterol at a dose of ¼ of 20 μg tablet once daily for a period of 12 months.
It has been assumed that clenbuterol, modulating the brain neurotransmitter systems, affects also the endocrine and immunological system. As a result, alleviation of communication disorders and improved contact with surroundings is observed in autistic children.

With `CC(C)(C)NCC(O)c1cc(Cl)c(N)c(Cl)c1` (racemic) [clenbuterol, (RS)-1-(4-amino-3,5-dichlorophenyl)-2-(tert-butylamino)ethanol] as the molecule, how does the “Overall effects observed in autistic children” value (administration at very small doses to autistic children) read?
The value was “Improved contact with surroundings, better concentration, improved ability to plan a specific task, improved understanding, calming, and reduced psychomotor anxiety were observed”.

And the “Effect on functional disorders related to ASD” value (administration of effective amounts of clenbuterol or its pharmaceutically effective salt)?
The value was “seems to practically alleviate functional disorders related to ASD”.

What about the Adverse effects (long-term administration of clenbuterol or its pharmaceutically acceptable salt) of the same molecule?
Its Adverse effects is “no adverse effects associated with medications previously used in treatment of autism were observed”.

And the “Change in autistic symptoms after therapy (interest in environment, contact with surroundings, anxiety)” value (patient with autistic symptoms, 1/4 tablet containing 20 μg once daily for 3 months)?
The value was “increased interest in the environment was observed; the child's contact with surroundings improved and its anxiety symptoms decreased”.

What about the “Change in autistic symptoms after treatment (speech expression, psychomotor anxiety, grimacing)” value (patient with early pediatric autism, psychomotor hyperactivity syndrome and speech development delay, 1/4 of 20 μg tablet once daily for 12 months) of the same molecule?
The value was “Improvement in speech expression was achieved as well as reduction of psychomotor anxiety and grimacing”.

What about the “Change in autistic symptoms after treatment (understanding, concentration, attention, speech)” value (patient with pediatric autism and cerebral palsy, 1/4 of 20 μg tablet twice daily for 12 months) of the same molecule?
Its value is “improvement with respect to understanding, concentration, attention, and speech”.
